Structures are written as SMILES. Activity calls are given as the source filed them. The rule behind the calls is not given here.

Carcinogen call data for seven compounds are collected here from PubChem BioAssay AID1259411 (Chemical Carcinogenesis Research Information System (CCRIS), 2018).

In the series the test system is rodent carcinogenicity bioassays, tumor incidence. The series is described as follows: CCRIS carcinogenicity studies. The note with it: Dose: 0, Dose: 0. A digest of the protocol: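 Archive of carcinogenicity, mutagenicity, tumor promotion and tumor inhibition results drawn from journals, NCI reports and other sources, expert-reviewed; covers 1985-2011 and is no longer updated.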

Consider `CCCCC(CC)COC(=O)CCCCC(=O)OCC(CC)CCCC` (stereo not drawn), for which the carcinogen call was “active; positive” (Species: MOUSE, Strain/Sex: B6C3F1/FEMALE, Route: ORAL, 12000, 25000 PPM IN DIET FOR 102-104 WK (STUDY DURATION: 102-104 WK), 12000, 25000 PPM IN DIET FOR 102-104 WK (STUDY DURATION: 102-104 WK), Tumor Site: Type of Lesion: LIVER: CARCINOMA, CARCINOMA OR ADENOMA); “active; positive” (Species: MOUSE, Strain/Sex: B6C3F1/FEMALE, Route: ORAL, 12000, 25000 PPM IN DIET FOR 103 WK (STUDY DURATION: 105-106 WK), 12000, 25000 PPM IN DIET FOR 103 WK (STUDY DURATION: 105-106 WK), Tumor Site: Type of Lesion: LIVER: HEPATOCELLULAR CARCINOMA); “active; positive” (Species: MOUSE, Strain/Sex: B6C3F1/MALE, Route: ORAL, 12000, 25000 PPM IN DIET FOR 102-104 WK (STUDY DURATION: 102-104 WK), 12000, 25000 PPM IN DIET FOR 102-104 WK (STUDY DURATION: 102-104 WK), Tumor Site: Type of Lesion: LIVER: CARCINOMA OR ADENOMA); “active; positive” (Species: MOUSE, Strain/Sex: B6C3F1/MALE, Route: ORAL, 12000, 25000 PPM IN DIET FOR 103 WK (STUDY DURATION: 104-106 WK), 12000, 25000 PPM IN DIET FOR 103 WK (STUDY DURATION: 104-106 WK), Tumor Site: Type of Lesion: LIVER: HEPATOCELLULAR CARCINOMA, HEPATOCELLULAR ADENOMA OR CARCINOMA); “inactive; negative” (Species: RAT, Strain/Sex: F344/FEMALE, Route: ORAL, 12000, 25000 PPM IN DIET FOR 102-104 WK (STUDY DURATION: 102-104 WK), 12000, 25000 PPM IN DIET FOR 102-104 WK (STUDY DURATION: 102-104 WK)); “inactive; negative” (Species: RAT, Strain/Sex: F344/FEMALE, Route: ORAL, 12000, 25000 PPM IN DIET FOR 103 WK (STUDY DURATION: 104-107 WK), 12000, 25000 PPM IN DIET FOR 103 WK (STUDY DURATION: 104-107 WK)). Further, the carcinogen call is “inactive; negative” (Species: RAT, Strain/Sex: F344/MALE, Route: ORAL, 12000, 25000 PPM IN DIET FOR 102-104 WK (STUDY DURATION: 102-104 WK), 12000, 25000 PPM IN DIET FOR 102-104 WK (STUDY DURATION: 102-104 WK)) and “inactive; negative” (Species: RAT, Strain/Sex: F344/MALE, Route: ORAL, 12000, 25000 PPM IN DIET FOR 103 WK (STUDY DURATION: 104-107 WK), 12000, 25000 PPM IN DIET FOR 103 WK (STUDY DURATION: 104-107 WK)).

`CC1CC(C)(C)CC(OOC(C)(C)C)(OOC(C)(C)C)C1` (stereo not drawn): the carcinogen call is, setting by setting: (Species: MOUSE, Strain/Sex: B6C3F1/FEMALE, Route: ORAL, 0.25, 0.5% IN DIET FOR 78 WK (STUDY DURATION: 83 WK), 0.25, 0.5% IN DIET FOR 78 WK (STUDY DURATION: 83 WK)) “inactive; negative”; (Species: MOUSE, Strain/Sex: B6C3F1/MALE, Route: ORAL, 0.25, 0.5% IN DIET FOR 78 WK (STUDY DURATION: 83 WK), 0.25, 0.5% IN DIET FOR 78 WK (STUDY DURATION: 83 WK)) “inactive; negative”.

On to `CC(C)(C)NC(=O)[C@H]1CC[C@H]2[C@@H]3CC[C@H]4NC(=O)C=C[C@]4(C)[C@H]3CC[C@]12C`, for which the carcinogen call (Species: MOUSE, Strain/Sex: CD-1/MALE, Route: GAVAGE, 2.5, 25, 250 MG/KG/D FOR 83 WK (STUDY DURATION: 83 WK), 2.5, 25, 250 MG/KG/D FOR 83 WK (STUDY DURATION: 83 WK), Tumor Site: Type of Lesion: TESTES: LEYDIG CELL ADENOMA) is “active; positive”.

As for `N#Cc1nn(-c2c(Cl)cc(C(F)(F)F)cc2Cl)c(N)c1S(=O)C(F)(F)F` (stereo not drawn), the carcinogen call by setting is: (Species: Mouse, Strain/Sex: CD-1/Female (32/Group), Route: Oral, 0.1, 0.5, 10, 30 ppm of 95.4% fipronil in diet for 78 wks, study duration 78 wks, 0.1, 0.5, 10, 30 ppm of 95.4% fipronil in diet for 78 wks, study duration 78 wks) “inactive; negative”; (Species: Mouse, Strain/Sex: CD-1/Male (32/Group), Route: Oral, 0.1, 0.5, 10, 30 ppm of 95.4% fipronil in diet for 78 wks, study duration 78 wks, 0.1, 0.5, 10, 30 ppm of 95.4% fipronil in diet for 78 wks, study duration 78 wks, Tumor Site: Type of Lesion: Liver: malignant hepatocellular tumors at highest dose) “active; positive”; (Species: Rat, Strain/Sex: CD/Female (50/Group), Route: Oral, 0.5, 1.5, 30, 300 ppm of 95.4% fipronil in diet for 89-91 wks, study duration 104 wks, 0.5, 1.5, 30, 300 ppm of 95.4% fipronil in diet for 89-91 wks, study duration 104 wks, Tumor Site: Type of Lesion: Thyroid: follicular cell adenoma and carcinoma at highest dose) “active; positive”; (Species: Rat, Strain/Sex: CD/Male (50/Group), Route: Oral, 0.5, 1.5, 30, 300 ppm of 95.4% fipronil in diet for 89-91 wks, study duration 104 wks, 0.5, 1.5, 30, 300 ppm of 95.4% fipronil in diet for 89-91 wks, study duration 104 wks, Tumor Site: Type of Lesion: Thyroid: follicular cell adenoma and carcinoma at highest dose) “active; positive”.

For `O=Cc1ccco1`, the carcinogen call (Species: MOUSE, Strain/Sex: B6C3F1/FEMALE, Route: GAVAGE, 50, 100, 175 MG/KG IN CORN OIL 5 D/WK FOR 103 WK (STUDY DURATION: 105 WK), 50, 100, 175 MG/KG IN CORN OIL 5 D/WK FOR 103 WK (STUDY DURATION: 105 WK), Tumor Site: Type of Lesion: LIVER: HEPATOCELLULAR ADENOMA, HEPATOCELLULAR ADENOMA OR CARCINOMA, FORESTOMACH: SQUAMOUS PAPILLOMA) is “active; positive”; the carcinogen call (Species: MOUSE, Strain/Sex: B6C3F1/MALE, Route: GAVAGE, 50, 100, 175 MG/KG IN CORN OIL 5 D/WK FOR 103 WK (STUDY DURATION: 105 WK), 50, 100, 175 MG/KG IN CORN OIL 5 D/WK FOR 103 WK (STUDY DURATION: 105 WK), Tumor Site: Type of Lesion: LIVER: HEPATOCELLULAR ADENOMA, HEPATOCELLULAR CARCINOMA) was “active; positive”; the carcinogen call (Species: MOUSE, Strain/Sex: CD-1/FEMALE, Route: DERMAL, 50 UMOL/0.1 ML DMSO 2/WK FOR 5 WK FOLLOWED 1 WK LATER BY 0.1 ML ACETONE 2/WK FOR 47 WK (STUDY DURATION: 52 WK)) is “inactive; negative”; the carcinogen call (Species: RAT, Strain/Sex: F344/FEMALE, Route: GAVAGE, 30, 60 MG/KG IN CORN OIL 5 D/WK FOR 103 WK (STUDY DURATION: 105 WK), 30, 60 MG/KG IN CORN OIL 5 D/WK FOR 103 WK (STUDY DURATION: 105 WK)) was “inactive; negative”; the carcinogen call (Species: RAT, Strain/Sex: F344/MALE, Route: GAVAGE, 30, 60 MG/KG IN CORN OIL 5 D/WK FOR 103 WK (STUDY DURATION: 105 WK), 30, 60 MG/KG IN CORN OIL 5 D/WK FOR 103 WK (STUDY DURATION: 105 WK), Tumor Site: Type of Lesion: BILE DUCT: CHOLANGIOCARCINOMA) is “active; positive”.

In the case of `O=C1c2ccccc2C(=O)c2c(O)c(O)cc(O)c21`, under “Species: RAT, Strain/Sex: F344/MALE, Route: ORAL, 1% IN DIET FOR 520 D (STUDY DURATION: 520 D), Tumor Site: Type of Lesion: URINARY BLADDER: CARCINOMA”, the carcinogen call is “active; positive”.

Take `CCCCNN`: the carcinogen call runs as follows: (Species: MOUSE, Strain/Sex: SWISS/FEMALE, Route: ORAL, 0.0125% SOLUTION IN DRINKING WATER DAILY FOR LIFE FOR AN AVERAGE DAILY INTAKE OF 0, 1.3 MG (STUDY DURATION: 130 WK), 0.0125% SOLUTION IN DRINKING WATER DAILY FOR LIFE FOR AN AVERAGE DAILY INTAKE OF 0, 1.3 MG (STUDY DURATION: 130 WK), Tumor Site: Type of Lesion: LUNG: ADENOMA, LUNG: ADENOMA OR ADENOCARCINOMA) “active; positive”; (Species: MOUSE, Strain/Sex: SWISS/MALE, Route: ORAL, 0.0125% SOLUTION IN DRINKING WATER DAILY FOR LIFE FOR AN AVERAGE DAILY INTAKE OF 0, 2.1 MG (STUDY DURATION: 130 WK), 0.0125% SOLUTION IN DRINKING WATER DAILY FOR LIFE FOR AN AVERAGE DAILY INTAKE OF 0, 2.1 MG (STUDY DURATION: 130 WK), Tumor Site: Type of Lesion: LUNG: ADENOMA, LUNG: ADENOMA OR ADENOCARCINOMA) “active; positive”.
